Values joined by “and” are separate entries in the source; they are usually repeats but may differ in a detail not shown here. Identical values can stand only once. Toxic doses and inconclusive results are not listed.
Test system: BDF1 mice, P388 leukemia ip, median survival T/C
Test: NCI In Vivo Anticancer Drug Screen. Data for tumor model P388 Leukemia (intraperitoneal) in B6D2F1 (BDF1) mice
Conditions: endpoint: median survival time, higher = longer survival
Outline: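 Read-out is survival of treated animals expressed relative to the vehicle group, as a T/C ratio.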

[1] = dose: 12.5 mg/kg/injection, schedule: Q01DX009 (ip), vehicle: saline
[2] = dose: 25.0 mg/kg/injection, schedule: Q01DX009 (ip), vehicle: saline
[3] = dose: 100.0 mg/kg/injection, schedule: Q04DX003 (ip), vehicle: saline with Tween-80
[4] = dose: 200.0 mg/kg/injection, schedule: Q04DX003 (ip), vehicle: saline with Tween-80
[5] = dose: 400.0 mg/kg/injection, schedule: Q04DX003 (ip), vehicle: saline with Tween-80
[6] = dose: 50.0 mg/kg/injection, schedule: Q01DX009 (ip), vehicle: saline with Tween-80
[7] = dose: 25.0 mg/kg/injection, schedule: Q01DX009 (ip), vehicle: saline with Tween-80

CC1Cc2ccccc2SC1(C)C (configuration not stated)
T/C [1]: 101 % of control | T/C [2]: 114 % of control | T/C (dose: 50.0 mg/kg/injection, schedule: Q01DX009 (ip), vehicle: saline): 115 % of control

NCCSC(c1ccccc1)c1ccccc1
T/C (dose: 50.0 mg/kg/injection, schedule: Q01DX009 (ip), vehicle: Klucel (hydroxypropylcellulose) (HPC)): 100 % of control | T/C (dose: 100.0 mg/kg/injection, schedule: Q01DX009 (ip), vehicle: Klucel (hydroxypropylcellulose) (HPC)): 105 % of control

CC1CC(C)(C)N=C(C[Si](C)(C)CC2=NC(C)(C)CC(C)O2)O1 (configuration not stated)
T/C (dose: 25.0 mg/kg/injection, schedule: Q04DX003 (ip), vehicle: Klucel (hydroxypropylcellulose) (HPC)): 114 % of control | T/C (dose: 50.0 mg/kg/injection, schedule: Q04DX003 (ip), vehicle: Klucel (hydroxypropylcellulose) (HPC)): 109 % of control | T/C (dose: 100.0 mg/kg/injection, schedule: Q04DX003 (ip), vehicle: Klucel (hydroxypropylcellulose) (HPC)): 113 % of control

CCCCc1c2c(nn1C(C)=O)C(=O)C=C(Nc1ccccc1)C2=O
T/C [3]: 100 % of control | T/C [4]: 99 % of control

COC(=O)c1cc(Cl)nc2nc(Cl)nc(Cl)c12
T/C (dose: 50.0 mg/kg/injection, schedule: Q01DX009 (ip), vehicle: DMSO): 114 % of control | T/C (dose: 100.0 mg/kg/injection, schedule: Q01DX009 (ip), vehicle: DMSO): 112 % of control | T/C (dose: 200.0 mg/kg/injection, schedule: Q01DX009 (ip), vehicle: DMSO): 102 % of control

COc1cc(Nc2ncnc(N)c2[N+](=O)[O-])cc(OC)c1OC
T/C (dose: 100.0 mg/kg/injection, schedule: Q01DX001 (ip), vehicle: saline with Tween-80): 87 % of control | T/C (dose: 400.0 mg/kg/injection, schedule: Q01DX001 (ip), vehicle: saline with Tween-80): 87 % of control

C=CCOP(=O)(N1CC1C)N1CC1C (configuration not stated)
T/C (dose: 6.25 mg/kg/injection, schedule: Q01DX009 (ip), vehicle: saline): 106 % of control | T/C [1]: 99 % of control | T/C [2]: 106 % of control | T/C (dose: 30.0 mg/kg/injection, schedule: Q04DX003 (ip), vehicle: saline): 109 % of control | T/C (dose: 45.0 mg/kg/injection, schedule: Q04DX003 (ip), vehicle: saline): 118 % of control | T/C (dose: 75.0 mg/kg/injection, schedule: Q01DX009 (ip), vehicle: saline): 150 % of control and 161 % of control | T/C (dose: 100.0 mg/kg/injection, schedule: Q01DX009 (ip), vehicle: saline): 117 % of control | T/C (dose: 100.0 mg/kg/injection, schedule: Q04DX003 (ip), vehicle: saline): 180 % of control and 188 % of control | T/C (dose: 150.0 mg/kg/injection, schedule: Q04DX003 (ip), vehicle: saline): 188 % of control

O=C1C(O)=Cc2cn(CCO)c(=O)c3ccc(-c4ccccc4)c1c23
T/C (dose: 50.0 mg/kg/injection, schedule: Q01DX001 (ip), vehicle: Klucel (hydroxypropylcellulose) (HPC)): 100 % of control | T/C (dose: 100.0 mg/kg/injection, schedule: Q01DX001 (ip), vehicle: Klucel (hydroxypropylcellulose) (HPC)): 100 % of control | T/C (dose: 200.0 mg/kg/injection, schedule: Q01DX001 (ip), vehicle: Klucel (hydroxypropylcellulose) (HPC)): 104 % of control

Nc1nc2ccccc2c(=O)n1C(=O)c1ccccc1
T/C [3]: 93 % of control | T/C [4]: 94 % of control | T/C [5]: 116 % of control

C[N+](C)(C)c1ncnc2nc[nH]c12
T/C (dose: 15.0 mg/kg/injection, schedule: Q01DX010 (ip), vehicle: saline): 91 % of control and 100 % of control | T/C (dose: 30.0 mg/kg/injection, schedule: Q01DX010 (ip), vehicle: saline): 100 % of control and 104 % of control | T/C (dose: 60.0 mg/kg/injection, schedule: Q01DX010 (ip), vehicle: saline): 91 % of control and 100 % of control | T/C (dose: 100.0 mg/kg/injection, schedule: Q01DX001 (ip), vehicle: saline): 100 % of control | T/C (dose: 120.0 mg/kg/injection, schedule: Q01DX010 (ip), vehicle: saline): 91 % of control and 95 % of control | T/C (dose: 200.0 mg/kg/injection, schedule: Q01DX001 (ip), vehicle: saline): 110 % of control

C=CC(C#N)(C=C)C=C
T/C [6]: 104 % of control

COC(=O)c1ccc(Cl)c(Cl)c1
T/C [7]: 101 % of control | T/C (dose: 25.0 mg/kg/injection, schedule: Q04DX003 (ip), vehicle: saline with Tween-80): 102 % of control | T/C [6]: 116 % of control | T/C (dose: 50.0 mg/kg/injection, schedule: Q04DX003 (ip), vehicle: saline with Tween-80): 94 % of control and 100 % of control and 108 % of control | T/C [3]: 97 % of control and 98 % of control and 103 % of control | T/C (dose: 150.0 mg/kg/injection, schedule: Q04DX003 (ip), vehicle: saline with Tween-80): 98 % of control | T/C [4]: 108 % of control and 112 % of control | T/C (dose: 300.0 mg/kg/injection, schedule: Q04DX003 (ip), vehicle: saline with Tween-80): 110 % of control | T/C [5]: 107 % of control

O=C(c1ccccc1)N1C=CN(C(=O)c2ccccc2)C1c1ncc[nH]1
T/C [6]: 105 % of control | T/C (dose: 100.0 mg/kg/injection, schedule: Q01DX009 (ip), vehicle: saline with Tween-80): 105 % of control | T/C (dose: 200.0 mg/kg/injection, schedule: Q01DX009 (ip), vehicle: saline with Tween-80): 106 % of control

COc1cc(Nc2c3ccccc3nc3ccccc23)cc(OC)c1OC
T/C (dose: 12.5 mg/kg/injection, schedule: Q01DX009 (ip), vehicle: saline with Tween-80): 97 % of control and 99 % of control | T/C [7]: 112 % of control | T/C [6]: 109 % of control and 115 % of control

— PubChem BioAssay AID328 (DTP/NCI, 2004)
